Consider 3 molecules from patent publication US8673914B2, “Use of phosphodiesterase inhibitors for treating multidrug resistance” (St. John's University, priority 2011, dated 2014).

A word on the IC50: it is the concentration needed to halve the response being measured. The term inhibition denotes the percentage by which the read-out fell short of the control.

A value given as a limit tells only on which side of the number the result lay.

The test system of one data set is KB-C2 cells (ABCB1). The experiment in a line: [^3H]-paclitaxel efflux (Example 1). The data set is classed as cell-based, human. The note with it: 1 h. Here is the method: The intracellular accumulation of [^3H]-paclitaxel was measured as follows. […] Intracellular paclitaxel accumulation was measured by incubating cells with 0.1 μM [^3H]-paclitaxel for 2 h in the presence or absence of the reversal agents at 37° C. The cells were washed three times with ice-cold PBS, then suspended in fresh medium with or without reversal agents at 37° C. Aliquots of the extracellular medium (40 μl) were collected at various time points (0, 60, 120 min), and finally the cells were collected and lysed in 10 mM lysis buffer (pH 7.4, containing 1% Triton X-100 and 0.2% SDS). Each sample was placed in scintillation fluid and the radioactivity was measured in a Packard TRI-CARB1 1900CA liquid scintillation analyzer from Packard Instrument Company, Inc. (Downers Grove, Ill.).

Data set [1] deals with MRP7 localization in HEK/MRP7 cells. Put plainly: Immunofluorescence of MRP7. Type of data set: cell-based. Particulars: 5 μM; 72 h. Here is the method:
HEK/MRP7 cells (1×10^4) were seeded in 24 well plates and cultured overnight. […] Cells were washed with PBS and fixed with 4% paraformaldehyde for 15 min at room temperature and then rinsed with PBS three times. Nonspecific reaction was blocked with 1% BSA for 1 h at room temperature. A polyclonal antibody D19 against MRP7 (1:200) was added and incubated overnight. […] DAPI was used for nuclear staining. Immunofluorescent images were taken with an inverted microscope (model IX70; Olympus, Center Valley, Pa.) with IX-FLA fluorescence and CCD camera.

The subject of another data set is HEK/MRP1 (ABCC1). Put plainly: MTT cytotoxicity/reversal assay (Example 1). The data set is classed as cell-based. Particulars: +10 μM reversal agent. On the procedure:
The KB-C2 and KB-3-1 were kindly provided by Dr. Akiyama (Kagoshima University, Japan). […] Similarly, the HEK/MRP1 (ABCC1) and HEK/ABCB1 cells were generated by transfecting the HEK293 cells with either the MRP1 expression vector or the ABCB1 expression vector. All of the cell lines were grown in Dulbecco's modified Eagle's medium (DMEM) supplemented with 10% bovine serum, 100 units/ml penicillin, and […] streptomycin in a humidified incubator containing 5% CO2 at 37° C.
(§1) The MTT assay was used to assess cytotoxicity. The cultured cells were harvested with trypsin and resuspended in a final concentration of 4×10^3 cells/well for KB-3-1; 7.5×10^3 cells/well for KB-C2; and 8×10^3 for all of the other cell lines used in this study. Cells were seeded evenly in 96-well multiplates. […] After 68 h of incubation, 20 μl of the MTT solution (4 mg/ml) was added to each well, and the plate was further incubated for 4 h at 37° C., allowing viable cells to convert the yellow-colored MTT into dark-blue formazan crystals. Subsequently, the medium was discarded, and 100 μl of DMSO was added into each well to dissolve the formazan crystals, generating purple color. The absorbance was determined at 570 nm by an OPSYS Microplate Reader from DYNEX Technologies, Inc. (Chantilly, Va.). […] The degree of the reversal of multidrug resistance (MDR) was calculated by dividing the IC50 of an anticancer drug, e.g., an antineoplastic or chemotherapeutic drug (agent, compound), in a cell type in the absence of a reversal agent by the IC50 of the anticancer drug in the same cell type in the presence of the reversal agent. The IC50 values were calculated from survival curves using the Bliss method.

In a further data set the test system is any cell lines tested. Put plainly: MTT assay, vardenafil or tadalafil alone. Type of data set: cell-based. Particulars: concentrations of up to 20 μM. Here is the method: as §1
(In general: Formazan colour is commonly taken as a measure of viable cells.)

In data set [2] the target is T1, ABCB1 (Homo sapiens, UniProt P08183).
T1 construct: made in house; host or cells: High Five insect cells (membrane vesicles / crude membranes)
T1 sequence (P08183 whole entry): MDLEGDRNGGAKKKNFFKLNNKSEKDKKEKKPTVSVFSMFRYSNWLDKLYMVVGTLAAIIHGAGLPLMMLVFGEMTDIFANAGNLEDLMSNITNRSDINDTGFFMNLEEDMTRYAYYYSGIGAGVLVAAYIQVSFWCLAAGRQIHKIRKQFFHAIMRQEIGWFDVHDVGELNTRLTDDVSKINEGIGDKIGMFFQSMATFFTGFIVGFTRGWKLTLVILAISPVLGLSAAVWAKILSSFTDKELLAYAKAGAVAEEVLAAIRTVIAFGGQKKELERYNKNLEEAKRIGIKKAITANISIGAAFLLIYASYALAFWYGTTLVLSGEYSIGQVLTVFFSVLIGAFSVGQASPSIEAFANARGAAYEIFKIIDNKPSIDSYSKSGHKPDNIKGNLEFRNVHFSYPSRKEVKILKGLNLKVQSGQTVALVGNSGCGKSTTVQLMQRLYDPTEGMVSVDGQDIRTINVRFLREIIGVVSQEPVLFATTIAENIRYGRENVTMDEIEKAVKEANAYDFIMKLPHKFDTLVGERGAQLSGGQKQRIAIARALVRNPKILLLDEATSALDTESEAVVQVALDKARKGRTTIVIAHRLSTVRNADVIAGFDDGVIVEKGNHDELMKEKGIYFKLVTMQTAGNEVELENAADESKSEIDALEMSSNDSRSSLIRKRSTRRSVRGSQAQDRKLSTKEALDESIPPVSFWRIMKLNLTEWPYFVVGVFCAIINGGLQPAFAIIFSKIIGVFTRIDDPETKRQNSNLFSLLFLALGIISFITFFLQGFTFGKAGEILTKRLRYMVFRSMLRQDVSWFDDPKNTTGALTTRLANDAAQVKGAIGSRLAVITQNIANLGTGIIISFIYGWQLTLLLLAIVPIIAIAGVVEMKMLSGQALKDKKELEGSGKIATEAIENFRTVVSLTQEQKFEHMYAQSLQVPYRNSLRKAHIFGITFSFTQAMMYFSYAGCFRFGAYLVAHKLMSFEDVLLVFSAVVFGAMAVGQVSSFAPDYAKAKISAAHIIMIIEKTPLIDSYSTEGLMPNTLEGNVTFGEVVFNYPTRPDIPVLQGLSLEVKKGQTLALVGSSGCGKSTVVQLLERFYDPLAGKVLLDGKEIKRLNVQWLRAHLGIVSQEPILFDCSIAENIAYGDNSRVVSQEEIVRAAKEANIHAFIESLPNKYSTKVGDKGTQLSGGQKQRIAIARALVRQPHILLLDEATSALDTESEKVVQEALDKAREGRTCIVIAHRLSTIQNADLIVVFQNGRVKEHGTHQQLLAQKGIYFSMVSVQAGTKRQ
The experiment in a line: Vi-sensitive ATPase assay of ABCB1 (Example 1). The note with it: ABCB1 membrane vesicles; read-out: concentration required for 50% stimulation of ATPase activity. The data set is classed as biochemical. Here is the method: The Vi-sensitive ATPase activity of ABCB1 in membrane vesicles of High Five™ insect cells was measured as follows. The membrane vesicles ([…]) were incubated in ATPase assay buffer (50 mM MES [pH 6.8], 50 mM KCl, 5 mM sodium azide, 2 mM EGTA, 2 mM dithiothreitol, 1 mM ouabain, and 10 mM MgCl2) with or without 0.3 mM orthovanadate (freshly prepared) at 37° C. for 5 min, then incubated with different concentrations of drug at 37° C. for 3 min. The ATPase reaction was started by the addition of 5 mM ATP, and the total volume was 0.1 ml. After incubation at 37° C. for 20 min, the reactions were stopped by the addition of 0.1 ml of 5% SDS solution and vortexed and kept at room temperature. The liberated Pi was measured as described in Ambudkar et al., supra.

The test system of a further data set is ABCG2-482-R2 (ABCG2). Put plainly: MTT cytotoxicity/reversal assay (Example 1). Particulars: +10 μM reversal agent. On the procedure:
The KB-C2 and KB-3-1 were kindly provided by Dr. Akiyama (Kagoshima University, Japan). HEK293-pcDNA3.1 and wild-type HEK/ABCG2 transfected cells were established by selection with G418 after transfecting HEK293 with either (1) empty pcDNA3.1 vector or (2) pcDNA3.1 vector containing full length of ABCG2 coding arginine (R) at amino acid position 482, and were then cultured in a medium with 2 mg/ml of G418 (ABCG2-482-R2 cells). Similarly, the HEK/MRP1 (ABCC1) and HEK/ABCB1 cells were generated by transfecting the HEK293 cells with either the MRP1 expression vector or the ABCB1 expression vector. All of the cell lines were grown in Dulbecco's modified Eagle's medium (DMEM) supplemented with 10% bovine serum, 100 units/ml penicillin, and […] streptomycin in a humidified incubator containing 5% CO2 at 37° C.
as §1

The target in data set [3] is T1, ABCB1. Put plainly: Photoaffinity labeling with [^125I]-IAAP (Example 1). The data set is classed as binding. The note with it: for IC50: ABCB1 membrane vesicles. On the procedure:
The photoaffinity labeling of ABCB1 with [^125I]-IAAP was performed as described in Sauna et al. (2000) Proc. Natl. Acad. Sci. USA 97:2515-20. The membrane vesicles from High Five™ insect cells expressing ABCB1 (50 μg of protein) were incubated at room temperature with different concentrations of drugs in the ATPase assay buffer with [^125I]-IAAP (7 nM) for 5 min under subdued light. […] Subsequently, the samples were run in a 7% Tris-acetate NuPAGE gel on SDS-PAGE; and the gels were dried and exposed to Bio-Max MR film (Eastman Kodak Co., Rochester, N.Y.) at −70° C. for 8-12 h. The radioactivity incorporated into the ABCB1 band was quantified using the STORM 860 PhosphorImager system and ImageQuaNT (Molecular Dynamics, CA).

In the data set with KB-C2 cells (ABCB1) (absence of vardenafil), `CC(=O)O[C@H]1C(=O)[C@@]2(C)[C@H]([C@H](OC(=O)c3ccccc3)[C@]3(O)C[C@H](OC(=O)[C@H](O)[C@@H](NC(=O)c4ccccc4)c4ccccc4)C(C)=C1C3(C)C)[C@]1(OC(C)=O)CO[C@@H]1C[C@@H]2O` [Paclitaxel, paclitaxel] displayed an accumulated paclitaxel effluxed of 70%.

As for `CN1CC(=O)N2[C@H](c3ccc4c(c3)OCO4)c3[nH]c4ccccc4c3C[C@@H]2C1=O` [Tadalafil, tadalafil], the “MRP7 protein localization in plasma membranes” value in data set [1] is “no alteration of MRP7 protein localization”. For the same molecule, the “fold reversal, vincristine” value with HEK/MRP1 (ABCC1) is listed as “(1.03)”. For the same molecule, in the data set on any cell lines tested, the “growth inhibition by the PDE5 inhibitor alone” value was “neither vardenafil nor tadalafil inhibited the growth of any cell lines tested”. In addition, at ABCB1 [2], the EC50 was over 25 µM. Further, in the data set on ABCG2-482-R2 (ABCG2), the “fold reversal, SN-38” value is reported as “(1.04)”. Besides, the IC50 against ABCB1 [3] is over 50 µM.

With `CCCc1nc(C)c2c(=O)[nH]c(-c3cc(S(=O)(=O)N4CCN(CC)CC4)ccc3OCC)nn12` [Vardenafil, vardenafil], in data set [1], the “MRP7 protein localization in plasma membranes” value is on record as “no alteration of MRP7 protein localization”. Also, the “fold reversal, vincristine” value with HEK/MRP1 (ABCC1) was “(1.07)”. For the same molecule, the “growth inhibition by the PDE5 inhibitor alone” value in the data set with any cell lines tested is recorded as “neither vardenafil nor tadalafil inhibited the growth of any cell lines tested”. For the same molecule, the EC50 at ABCB1 [2] was determined as 2.69 ± 0.72 µM. Moreover, in the data set on KB-C2 cells (ABCB1) (10 μM), the “accumulated paclitaxel retained inside cells” value came to 75%. The “fold reversal, SN-38” value in the data set with ABCG2-482-R2 (ABCG2) is given as “(0.97)”. The molecule also returned an IC50 at ABCB1 [3] of 0.69 µM. On ABCB1 [3] (pH 6.8, probe [125I]-IAAP (7 nM), 10 μM, read-out: inhibition of [^125I]-IAAP photolabeling), the inhibition at 5 min, 10 µM stood at 90%.
